Series [1] relates to BaF3. In words: Antiproliferative activity against mouse BAF3 cells harboring CCDC6-RET fusion protein after 72 hrs by CCK8 assay. As to conditions: BaF3, 72 h; call rule not given here. Background: Tetrazolium dyes change colour on reduction, which living cells bring about.
In series [2] the target is Proto-oncogene tyrosine-protein kinase receptor Ret (Homo sapiens, UniProt P07949). The experiment in a line: Inhibition of recombinant RET (unknown origin) using poly (Glu,Tyr) 4:1 substrate after 60 mins by ELISA. Background: In an ELISA, binding on a coated surface is turned into a signal by an enzyme label.
Sequence of Proto-oncogene tyrosine-protein kinase receptor Ret (P07949 whole entry, the tested form may be a part): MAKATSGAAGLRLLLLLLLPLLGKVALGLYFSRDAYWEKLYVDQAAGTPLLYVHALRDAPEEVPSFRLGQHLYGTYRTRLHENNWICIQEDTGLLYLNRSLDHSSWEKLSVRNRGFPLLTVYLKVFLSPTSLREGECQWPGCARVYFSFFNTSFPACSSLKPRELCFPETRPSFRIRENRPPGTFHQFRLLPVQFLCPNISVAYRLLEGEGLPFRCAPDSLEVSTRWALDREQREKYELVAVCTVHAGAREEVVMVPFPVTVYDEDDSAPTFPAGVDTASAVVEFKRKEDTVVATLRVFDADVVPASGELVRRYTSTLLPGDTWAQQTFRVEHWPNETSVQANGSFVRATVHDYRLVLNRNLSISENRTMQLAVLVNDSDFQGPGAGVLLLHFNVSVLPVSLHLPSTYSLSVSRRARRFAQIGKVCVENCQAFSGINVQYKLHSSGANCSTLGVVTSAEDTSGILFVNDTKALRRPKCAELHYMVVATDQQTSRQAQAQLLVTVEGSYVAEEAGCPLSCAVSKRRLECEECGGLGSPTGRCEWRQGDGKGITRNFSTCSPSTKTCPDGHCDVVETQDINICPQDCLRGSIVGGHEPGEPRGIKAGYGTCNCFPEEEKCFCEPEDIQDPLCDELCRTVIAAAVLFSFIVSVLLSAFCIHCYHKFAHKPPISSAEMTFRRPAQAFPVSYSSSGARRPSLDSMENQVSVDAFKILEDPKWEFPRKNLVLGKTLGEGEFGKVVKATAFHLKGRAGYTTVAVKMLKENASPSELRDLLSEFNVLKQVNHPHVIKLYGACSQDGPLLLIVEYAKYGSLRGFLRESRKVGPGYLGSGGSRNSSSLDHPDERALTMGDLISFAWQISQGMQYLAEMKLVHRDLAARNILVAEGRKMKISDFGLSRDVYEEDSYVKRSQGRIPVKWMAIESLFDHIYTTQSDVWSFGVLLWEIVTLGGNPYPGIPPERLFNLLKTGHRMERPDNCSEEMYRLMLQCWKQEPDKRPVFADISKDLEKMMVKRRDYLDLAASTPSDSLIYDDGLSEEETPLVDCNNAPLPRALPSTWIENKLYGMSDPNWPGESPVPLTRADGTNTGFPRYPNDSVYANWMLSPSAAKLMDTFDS
The target in series [3] is Proto-oncogene tyrosine-protein kinase receptor Ret (Mus musculus) (UniProt P35546). In words: Inhibition of RET phosphorylation in mouse BAF3 cells harboring CCDC6-RET fusion protein after 2 hrs by Western blot method. Type of series: cell-based. (In general: A western blot detects proteins with antibodies after separation by electrophoresis.)
Sequence of Proto-oncogene tyrosine-protein kinase receptor Ret (Mus musculus) (P35546 whole entry, the tested form may be a part): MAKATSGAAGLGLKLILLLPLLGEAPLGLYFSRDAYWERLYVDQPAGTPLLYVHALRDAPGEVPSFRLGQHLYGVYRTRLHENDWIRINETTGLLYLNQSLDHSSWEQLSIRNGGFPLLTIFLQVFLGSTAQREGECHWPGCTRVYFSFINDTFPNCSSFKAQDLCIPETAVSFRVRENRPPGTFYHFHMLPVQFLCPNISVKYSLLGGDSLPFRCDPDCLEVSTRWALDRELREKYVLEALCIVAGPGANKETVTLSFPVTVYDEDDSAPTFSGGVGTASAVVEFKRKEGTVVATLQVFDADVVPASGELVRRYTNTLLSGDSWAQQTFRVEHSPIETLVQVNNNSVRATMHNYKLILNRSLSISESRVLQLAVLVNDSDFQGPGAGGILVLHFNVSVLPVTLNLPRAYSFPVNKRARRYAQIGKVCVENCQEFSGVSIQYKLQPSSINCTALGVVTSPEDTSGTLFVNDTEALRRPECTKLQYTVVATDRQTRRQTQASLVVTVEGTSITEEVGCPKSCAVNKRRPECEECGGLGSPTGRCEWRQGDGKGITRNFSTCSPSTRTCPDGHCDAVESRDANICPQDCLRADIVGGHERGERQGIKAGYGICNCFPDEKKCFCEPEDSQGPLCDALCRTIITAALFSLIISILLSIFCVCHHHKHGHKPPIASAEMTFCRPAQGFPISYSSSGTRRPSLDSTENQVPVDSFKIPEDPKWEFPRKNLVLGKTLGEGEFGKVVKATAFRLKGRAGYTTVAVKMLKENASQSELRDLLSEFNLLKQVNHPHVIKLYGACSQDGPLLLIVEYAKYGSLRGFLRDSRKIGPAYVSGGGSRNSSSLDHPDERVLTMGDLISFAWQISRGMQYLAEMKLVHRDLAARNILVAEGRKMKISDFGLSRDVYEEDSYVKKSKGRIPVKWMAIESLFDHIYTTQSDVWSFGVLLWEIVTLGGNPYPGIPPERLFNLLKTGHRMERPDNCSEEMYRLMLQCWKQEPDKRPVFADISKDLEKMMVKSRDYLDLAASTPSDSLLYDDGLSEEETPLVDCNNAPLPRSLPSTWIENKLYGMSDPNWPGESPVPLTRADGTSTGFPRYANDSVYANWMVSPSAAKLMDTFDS
Series [4] has the same target. In words: Inhibition of RET in mouse BAF3 cells harboring CCDC6-RET fusion protein assessed as suppression of RET phosphorylation after 2 hrs by Western blot method. It is filed as cell-based.
Series [5] has the same target. The experiment in a line: Inhibition of RET in mouse BAF3 cells harboring CCDC6-RET fusion protein assessed as suppression of STAT3 phosphorylation after 2 hrs by Western blot method. Type of series: cell-based.
Series [6] has the same target. In words: Inhibition of RET in mouse BAF3 cells harboring CCDC6-RET fusion protein assessed as suppression of AKT phosphorylation after 2 hrs by Western blot method. Type of series: cell-based.
In series [7] the target is Vascular endothelial growth factor receptor 2 (Homo sapiens, UniProt P35968). The experiment in a line: Inhibition of VEGFR2 (unknown origin) at 1 uM.
Sequence of Vascular endothelial growth factor receptor 2 (P35968 whole entry): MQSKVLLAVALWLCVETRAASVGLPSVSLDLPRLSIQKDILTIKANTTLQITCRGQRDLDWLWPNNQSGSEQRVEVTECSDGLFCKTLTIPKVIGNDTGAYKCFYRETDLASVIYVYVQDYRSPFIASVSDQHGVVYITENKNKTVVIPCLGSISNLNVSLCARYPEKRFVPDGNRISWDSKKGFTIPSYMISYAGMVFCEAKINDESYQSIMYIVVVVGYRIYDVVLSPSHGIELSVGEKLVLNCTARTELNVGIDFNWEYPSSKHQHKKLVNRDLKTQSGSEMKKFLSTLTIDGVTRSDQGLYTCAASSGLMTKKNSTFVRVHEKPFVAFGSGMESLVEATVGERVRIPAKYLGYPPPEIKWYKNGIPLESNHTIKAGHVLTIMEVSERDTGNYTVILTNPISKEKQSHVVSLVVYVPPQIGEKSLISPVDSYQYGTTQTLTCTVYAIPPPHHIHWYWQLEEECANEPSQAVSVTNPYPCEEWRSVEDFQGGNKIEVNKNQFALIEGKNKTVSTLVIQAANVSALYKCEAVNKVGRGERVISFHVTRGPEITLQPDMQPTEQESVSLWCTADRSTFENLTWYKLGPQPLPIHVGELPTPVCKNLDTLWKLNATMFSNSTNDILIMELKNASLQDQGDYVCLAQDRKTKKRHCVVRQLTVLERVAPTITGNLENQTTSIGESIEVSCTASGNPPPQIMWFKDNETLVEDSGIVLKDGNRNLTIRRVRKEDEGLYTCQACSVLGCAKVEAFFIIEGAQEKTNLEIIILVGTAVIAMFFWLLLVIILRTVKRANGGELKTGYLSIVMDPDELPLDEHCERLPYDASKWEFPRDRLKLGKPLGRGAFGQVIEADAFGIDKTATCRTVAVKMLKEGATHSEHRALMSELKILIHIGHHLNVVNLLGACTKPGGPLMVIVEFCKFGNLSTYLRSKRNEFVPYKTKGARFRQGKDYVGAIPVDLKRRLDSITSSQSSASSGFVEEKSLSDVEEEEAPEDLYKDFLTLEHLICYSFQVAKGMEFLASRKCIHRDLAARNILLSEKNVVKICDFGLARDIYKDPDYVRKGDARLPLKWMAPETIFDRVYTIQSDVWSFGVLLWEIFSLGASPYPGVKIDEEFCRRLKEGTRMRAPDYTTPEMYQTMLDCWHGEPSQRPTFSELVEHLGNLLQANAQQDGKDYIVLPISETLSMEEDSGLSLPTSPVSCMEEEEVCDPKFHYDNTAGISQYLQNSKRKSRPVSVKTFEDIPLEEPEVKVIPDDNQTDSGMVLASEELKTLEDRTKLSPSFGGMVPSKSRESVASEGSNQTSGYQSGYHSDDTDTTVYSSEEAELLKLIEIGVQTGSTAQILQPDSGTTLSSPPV

As a reminder, the IC50 is the concentration at which inhibition is half-maximal.

Consider `CC(C)n1nc(C#Cc2ccccc2)c2c(N)ncnc21`, for which the IC50 is above 1000 nM in series [1] and 56.5 nM in series [2].
As for `CC(C)n1nc(-c2cc(CO)on2)c2c(N)ncnc21`, in series [1], half-maximal inhibition (IC50) was put at 454 nM.
Consider `CC(O)c1cc(-c2nn(C(C)C)c3ncnc(N)c23)no1` (centres undefined), for which the inhibition entry in series [3], in series [4], in series [5] and in series [6] was “Dose-dependent effect” each time. Besides, in series [1], the IC50 was 433 nM. Further, in series [7], the “inhibition (INH)” value is listed as “Not Active”.

For the origin of these results see ChEMBL document CHEMBL4028821, “Synthesis and structure-activity relationship study of pyrazolo[3,4-d]pyrimidines as tyrosine kinase RET inhibitors” (Bioorg Med Chem Lett, 2017).
